Like-named read-outs stand apart in the source and are kept apart here. Where no end group is shown, it is not given here.

One experiment deals with human NaV1.9 (Homo sapiens, UniProt Q9UI33). It is filed as cell-based.
In the next experiment the target is human NaV1.8 (Homo sapiens, UniProt Q9Y5Y9). Kind of experiment: cell-based. The following applies: EC50 (potency), hNaV1.8.
Another experiment deals with human NaV1.6 (Homo sapiens, UniProt Q9UQD0). Put plainly: cell-based.
A further experiment has as its target mouse NaV1.7 (Mus musculus, UniProt Q62205). Kind of experiment: cell-based. It is filed as cell-based. On the procedure:
HEK293 cells stably expressing the α-subunit of mouse Nav1.7, human NaV1.6 or Nav1.7 plus the β1 subunit (SB Drug Discovery, Glasgow, United Kingdom) and Chinese Hamster Ovary (CHO) cells stably expressing human NaV1.8 plus the β3 subunit in a tetracycline-inducible system (ChanTest, Cleveland, OH, United States), were cultured were maintained on MEM supplemented with 10% heat-inactivated FBS, 2 mM L-glutamine in an incubator at 37 °C with 5% CO2 and passaged every 3–4 days (at 70–80% confluency) using TrypLE Express (Thermo Fisher Scientific).
Whole-cell patch-clamp experiments were performed using a QPatch16X automated electrophysiology platform (Sophion Bioscience, Ballerup, Denmark). The extracellular solution (ECS) contained 145 mM NaCl (replaced with 70 mM choline chloride for NaV1.7), 4 mM KCl, 2 mM CaCl2, 1 mM MgCl2, 10 mM HEPES, and 10 mM glucose (pH 7.4; osmolarity, 305 mOsm). The intracellular solution (ICS) contained 140 mM CsF, 1 mM/5 mM EGTA/CsOH, 10 mM HEPES, and 10 mM NaCl (pH 7.3) with CsOH (osmolarity, 320 mOsm). Peptides were diluted in ECS with 0.1% BSA.
Concentration-response experiments were performed using a holding potential of −90 mV and a 50-ms pulse to −20 mV ( + 10 mV for NaV1.8) every 20 s (0.05 Hz). […] Conductance-voltage curves were obtained by calculating the conductance (G) at each voltage (V) using the equation G = I/(V – Vrev), where Vrev is the reversal potential, and they were fitted with the following single or double Boltzmann equations: I = Imax/{1 + exp[(V50 − Vm)/k]} or I = {Imax(a)/[1+exp({V50 (a) – Vm}/k(a))]} + {Imax(b)/[1 + exp({V50(b) – Vm}/k(b))]}, where Imax is the maximal current after normalisation to the driving force, V50 is the half-activation potential, Vm is the membrane potential, and k is the slope factor. For statistical comparison of G-V curves, a two-tailed unpaired t-test was used.

For another experiment, the target named is human NaV1.7 (Homo sapiens, UniProt Q15858). Put plainly: cell-based.
human NaV1.7, sequence (Q07699 19-218): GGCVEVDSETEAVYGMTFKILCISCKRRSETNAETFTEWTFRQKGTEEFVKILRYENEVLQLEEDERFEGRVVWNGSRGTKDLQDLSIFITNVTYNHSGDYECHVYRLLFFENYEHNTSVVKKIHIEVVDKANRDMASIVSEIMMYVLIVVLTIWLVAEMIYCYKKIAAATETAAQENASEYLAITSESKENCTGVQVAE
human NaV1.7, sequence (Q15858 whole entry): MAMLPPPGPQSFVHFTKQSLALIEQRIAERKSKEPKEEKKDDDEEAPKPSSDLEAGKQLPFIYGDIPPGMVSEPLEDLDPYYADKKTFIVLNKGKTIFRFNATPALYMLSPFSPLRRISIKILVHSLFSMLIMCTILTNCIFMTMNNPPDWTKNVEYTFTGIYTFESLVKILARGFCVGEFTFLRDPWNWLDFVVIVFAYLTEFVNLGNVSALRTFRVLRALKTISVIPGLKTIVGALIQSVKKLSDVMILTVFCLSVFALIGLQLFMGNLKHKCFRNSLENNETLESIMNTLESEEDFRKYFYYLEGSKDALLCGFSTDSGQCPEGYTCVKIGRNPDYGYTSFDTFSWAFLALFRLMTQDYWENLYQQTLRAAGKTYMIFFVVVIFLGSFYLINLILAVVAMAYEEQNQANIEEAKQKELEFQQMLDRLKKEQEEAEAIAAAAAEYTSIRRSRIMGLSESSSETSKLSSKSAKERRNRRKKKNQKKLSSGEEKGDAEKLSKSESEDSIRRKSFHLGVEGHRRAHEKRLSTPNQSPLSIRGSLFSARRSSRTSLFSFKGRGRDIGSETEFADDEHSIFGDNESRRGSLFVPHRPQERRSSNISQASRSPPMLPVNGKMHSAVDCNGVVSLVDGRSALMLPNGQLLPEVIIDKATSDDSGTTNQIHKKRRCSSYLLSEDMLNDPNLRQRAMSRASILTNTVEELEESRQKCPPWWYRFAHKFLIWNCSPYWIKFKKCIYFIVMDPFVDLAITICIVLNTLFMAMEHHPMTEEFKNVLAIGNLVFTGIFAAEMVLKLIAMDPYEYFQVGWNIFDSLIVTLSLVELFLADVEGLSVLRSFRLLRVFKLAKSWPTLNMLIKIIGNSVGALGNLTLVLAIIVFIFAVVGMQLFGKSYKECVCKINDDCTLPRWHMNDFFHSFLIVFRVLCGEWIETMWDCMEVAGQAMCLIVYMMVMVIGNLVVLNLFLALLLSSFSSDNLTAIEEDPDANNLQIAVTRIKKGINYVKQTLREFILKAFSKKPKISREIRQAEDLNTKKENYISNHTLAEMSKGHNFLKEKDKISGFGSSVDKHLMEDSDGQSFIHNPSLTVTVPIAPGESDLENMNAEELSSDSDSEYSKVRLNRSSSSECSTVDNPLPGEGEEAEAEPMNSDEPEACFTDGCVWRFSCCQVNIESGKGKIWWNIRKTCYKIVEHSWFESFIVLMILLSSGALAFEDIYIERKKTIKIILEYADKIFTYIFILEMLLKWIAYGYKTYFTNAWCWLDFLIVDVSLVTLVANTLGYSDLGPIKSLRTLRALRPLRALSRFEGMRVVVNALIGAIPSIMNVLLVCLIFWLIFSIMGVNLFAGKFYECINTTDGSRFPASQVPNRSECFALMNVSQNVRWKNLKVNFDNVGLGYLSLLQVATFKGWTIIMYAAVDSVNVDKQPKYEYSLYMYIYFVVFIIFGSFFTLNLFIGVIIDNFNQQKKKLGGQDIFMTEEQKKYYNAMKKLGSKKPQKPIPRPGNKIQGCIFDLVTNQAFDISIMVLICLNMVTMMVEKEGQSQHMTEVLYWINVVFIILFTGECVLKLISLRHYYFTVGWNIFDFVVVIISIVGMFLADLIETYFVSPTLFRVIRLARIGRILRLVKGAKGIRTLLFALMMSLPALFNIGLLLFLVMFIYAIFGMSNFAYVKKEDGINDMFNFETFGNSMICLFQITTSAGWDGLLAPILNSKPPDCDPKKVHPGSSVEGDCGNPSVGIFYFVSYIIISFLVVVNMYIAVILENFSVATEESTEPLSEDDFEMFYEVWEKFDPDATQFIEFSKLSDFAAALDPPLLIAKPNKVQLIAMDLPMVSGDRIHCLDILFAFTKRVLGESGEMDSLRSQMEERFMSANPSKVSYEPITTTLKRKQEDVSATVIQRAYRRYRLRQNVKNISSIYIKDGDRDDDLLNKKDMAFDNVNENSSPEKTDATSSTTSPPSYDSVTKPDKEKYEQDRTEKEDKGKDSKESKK

mouse NaV1.7, sequence (Q62205 whole entry): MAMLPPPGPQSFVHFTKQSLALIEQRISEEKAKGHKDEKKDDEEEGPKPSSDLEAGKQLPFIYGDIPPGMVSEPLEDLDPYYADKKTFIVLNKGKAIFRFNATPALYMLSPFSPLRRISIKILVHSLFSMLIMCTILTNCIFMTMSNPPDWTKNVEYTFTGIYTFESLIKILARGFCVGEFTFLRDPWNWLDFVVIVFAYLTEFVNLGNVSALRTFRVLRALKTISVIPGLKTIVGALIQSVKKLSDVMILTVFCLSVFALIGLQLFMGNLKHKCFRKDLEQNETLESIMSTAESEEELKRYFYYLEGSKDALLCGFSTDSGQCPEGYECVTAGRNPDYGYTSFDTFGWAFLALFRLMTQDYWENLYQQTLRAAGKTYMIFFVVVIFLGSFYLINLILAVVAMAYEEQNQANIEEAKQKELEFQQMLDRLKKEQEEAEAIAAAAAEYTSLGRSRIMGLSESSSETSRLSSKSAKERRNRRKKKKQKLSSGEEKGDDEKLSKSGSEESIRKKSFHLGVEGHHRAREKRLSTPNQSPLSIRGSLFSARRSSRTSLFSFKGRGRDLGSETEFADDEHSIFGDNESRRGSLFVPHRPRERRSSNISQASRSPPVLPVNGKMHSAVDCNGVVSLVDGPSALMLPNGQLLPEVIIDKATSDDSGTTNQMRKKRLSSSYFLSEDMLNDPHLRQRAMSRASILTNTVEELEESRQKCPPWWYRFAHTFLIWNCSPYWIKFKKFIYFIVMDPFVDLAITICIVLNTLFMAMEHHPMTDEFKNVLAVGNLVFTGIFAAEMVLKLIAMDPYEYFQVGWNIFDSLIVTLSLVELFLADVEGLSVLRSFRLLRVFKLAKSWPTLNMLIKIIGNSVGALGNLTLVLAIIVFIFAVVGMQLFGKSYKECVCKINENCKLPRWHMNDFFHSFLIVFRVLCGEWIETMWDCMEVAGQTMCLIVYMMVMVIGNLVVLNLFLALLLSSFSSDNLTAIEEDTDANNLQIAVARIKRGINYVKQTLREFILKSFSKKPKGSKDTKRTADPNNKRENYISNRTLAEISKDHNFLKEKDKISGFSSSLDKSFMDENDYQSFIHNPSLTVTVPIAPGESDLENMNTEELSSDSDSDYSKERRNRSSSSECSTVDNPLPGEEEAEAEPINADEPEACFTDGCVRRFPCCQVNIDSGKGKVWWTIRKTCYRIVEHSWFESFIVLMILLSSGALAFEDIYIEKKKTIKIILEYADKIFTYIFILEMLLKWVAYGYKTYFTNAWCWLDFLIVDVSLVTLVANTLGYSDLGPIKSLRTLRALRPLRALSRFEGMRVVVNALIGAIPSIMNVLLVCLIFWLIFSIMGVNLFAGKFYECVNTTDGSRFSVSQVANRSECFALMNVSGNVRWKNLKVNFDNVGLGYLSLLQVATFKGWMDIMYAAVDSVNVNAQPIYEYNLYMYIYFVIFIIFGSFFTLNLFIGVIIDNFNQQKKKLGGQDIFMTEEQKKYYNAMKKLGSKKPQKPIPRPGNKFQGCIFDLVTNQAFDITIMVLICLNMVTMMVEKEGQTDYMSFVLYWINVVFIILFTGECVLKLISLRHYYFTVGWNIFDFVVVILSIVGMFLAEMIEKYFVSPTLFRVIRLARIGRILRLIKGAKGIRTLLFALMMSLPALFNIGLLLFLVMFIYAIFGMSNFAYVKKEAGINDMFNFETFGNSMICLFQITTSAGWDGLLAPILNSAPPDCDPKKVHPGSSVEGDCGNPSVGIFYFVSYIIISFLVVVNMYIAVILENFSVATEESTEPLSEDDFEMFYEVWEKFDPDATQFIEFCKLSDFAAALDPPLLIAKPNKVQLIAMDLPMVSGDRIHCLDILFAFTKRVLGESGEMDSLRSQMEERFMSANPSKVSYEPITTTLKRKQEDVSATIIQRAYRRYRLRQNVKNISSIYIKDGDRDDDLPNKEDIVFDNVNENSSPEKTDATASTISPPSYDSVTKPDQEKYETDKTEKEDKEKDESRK
mouse NaV1.7, sequence (Q07699 19-218, further chain): as the sequence (Q07699 19-218) above

What is called EC50 is the concentration that produces a half-maximal response. Low values mean greater potency, high ones weaker potency. Turning to “FLPLLILGSLLMTPPVIQAIHDAQR-NH2 [Pc1a, poneratoxin]”, the “hNaV1.9 I50-ms, % of peak” value on human NaV1.9 (SEM) was 58.6 ± 4.4%. Further, the 50% effective concentration (EC50) is > 10000 nM on human NaV1.8; 97 ± 10 nM at human NaV1.6 (SEM); 1160 nM at mouse NaV1.7; 1800 ± 200 nM on mouse NaV1.7 (EC50 (potency), mNaV1.7, HEK293, hold −90 mV, pulse to −20 mV, I40-ms/Imax, mean ± SEM, SEM); 718 to 2680 nM on mouse NaV1.7 (EC50, 95% CI (profile likelihood), mNaV1.7 (I40ms), Supplementary Fig. 2f / 2i); 2300 ± 400 nM at human NaV1.7 (EC50 (potency), hNaV1.7, SEM). Moreover, the “mNaV1.7 sustained current, % of control peak” value at mouse NaV1.7 (3 µM peptide, step –90 to –20 mV, n = 4-5 cells, mean ± SEM, SEM) amounted to 8.8 ± 2.0%. The “hNaV1.7 peak current amplitude, % of control” value on human NaV1.7 came out at 57.8 ± 4.9%. Moreover, the “hNaV1.7 sustained current (I40-ms), % of control peak” value on human NaV1.7 (SEM) is reported as 12.2 ± 1.2%.

Turning to GLPLLALLMTLPFIQHAITN-NH2 [Mri1a], at human NaV1.9, the “activity at hNaV1.9 (sustained current vs control)” value is “inactive”. Moreover, the half-maximal effective concentration (EC50) is 3240 nM on human NaV1.6; > 10000 nM on human NaV1.7 (EC50 (potency), hNaV1.7); 5600 nM at human NaV1.7 (NaV1.7, best-fit EC50). Moreover, the “hNaV1.7 peak current amplitude, % of control” value on human NaV1.7 was found to be 68.1 ± 10.6%. Besides, on human NaV1.7 (SEM), the “hNaV1.7 sustained current (I40-ms), % of control peak” value turned out to be 3.4 ± 0.7%.

For the origin of these results see PMC10206162 (Nature Communications, 2023).
